Residues, ends and D or L forms follow the SMILES beside them.
What was measured:
[1] = test system: Isolated guinea pig hearts; assay: Example 28: lipid peroxidation in hearts subjected to ischemia and reperfusion; details: brief intervals of ischemia and reperfusion; compared to untreated controls
From the text: Isolated guinea pig hearts will be perfused in a retrograde manner in a Langendorff apparatus and subjected to various intervals of ischemia-reperfusion. Hearts will be fixed immediately, embedded in paraffin, and sectioned. Immunohistochemical analysis of 4-hydroxy-2-nonenol (HNE)-modified proteins will be carried out using an anti-HNE antibody.

isolated mitochondria = assay: Example 12: MPT induced by Ca^2+ overload and 3NP in isolated mitochondria
Experimental: 3-Nitropropionic acid (3NP) is an irreversible inhibitor of succinate dehydrogenase in complex II of the electron transport chain. It is anticipated that the addition of 3NP (1 mM) to isolated mitochondria will cause the loss of mitochondrial membrane potential and the onset of MPT.

[2] = test system: Islet cells isolated from mouse pancreas; assay: Example 29: viability of isolated pancreatic islet cells; format: cell-based; details: added to isolation buffers
From the text: Islet cells will be isolated from mouse pancreas according to standard procedures. Peptide conjugates, aromatic-cationic peptides, SPN10(s) with or without aromatic-cationic peptides or control vehicle will be added to isolation buffers used throughout the isolation procedure. Mitochondrial membrane potential will be measured using TMRM (red) and visualized by confocal microscopy, and apoptosis will be measured by flow cytometry using annexin V and necrosis by propidium iodide.

Sprague-Dawley rats = assay: Example 47: wound contraction after burn injury; format: in vivo, rat; details: compared to burn control subjects
Experimental: Sprague-Dawley rats (male, 300-350 g) will be pre-treated with (1 mg) peptide conjugates administered i.p. (approx. 3 mg/kg) 1 hour prior to burn (65° C. water, 25 seconds, lower back), followed by the topical application of peptide conjugates to the wound (1 mg), and 1 mg peptide conjugates administered i.p. once every 12 hours for 72 hours. Wounds will be observed for up to 3 weeks post-burn. A similar treatment regimen is followed for the groups treated with aromatic-cationic peptides (an equivalent molar dose of aromatic-cationic peptide based on the concentration of the aromatic-cationic peptide administered in the peptide conjugate treatment group), SPN10(s) (an equivalent molar dose of SPN10 based on the concentration of SPN10 administered in the peptide conjugate treatment group), or SPN10(s) in combination with aromatic-cationic peptides (e.g., an equivalent molar dose of SPN10 based on the concentration of SPN10 administered in the peptide conjugate treatment group and an equivalent molar dose of aromatic-cationic peptide based on the concentration of aromatic-cationic peptide administered in the peptide conjugate treatment group).

[3] = test system: rat model of radiocontrast dye-induced renal failure; assay: Example 39: radiocontrast dye-induced renal failure; format: in vivo
Experimental: Animal Model: A rat model of radiocontrast dye-induced renal failure as described by Agmon, et al., J. Clin. Invest. 94:1069-1075 (1994) will be used. As in humans, radiocontrast dyes are generally non-toxic when administered to animals with normal renal function. However, radiocontrast dyes can induce ARI in animals with impaired renal function. In this model, impaired renal function will be induced by the administration of indomethacin (10 mg/kg) and L-NAME (10 mg/kg). Animals will be assigned to one of the following groups:
2. Indomethcin and L-NAME administered 15 minutes apart, followed by iothalamate (6 mL/kg) (n=7)
3. peptide conjugates (3 mg/kg, i.p.) administered 15 minutes prior to indomethacin/L-NAME/iothalamate administration as described in Group 2; second dose of peptide conjugates (3 mg/kg) administered immediately after drug exposure (n=9).
4. aromatic-cationic peptides (an equivalent molar dose of aromatic-cationic peptide based on the concentration of the aromatic-cationic peptide administered in the peptide conjugate treatment group) administered 15 minutes prior to indomethacin/L-NAME/iothalamate administration as described in Group 2; second dose of aromatic-cationic peptides (an equivalent molar dose of aromatic-cationic peptide based on the concentration of the aromatic-cationic peptide administered in the peptide conjugate treatment group) administered immediately after drug exposure (n=9).
5. […]
Renal Function: Renal function will be assessed by determining GFR at baseline and 24 hours following dye administration. GFR will be determined by creatinine clearance which will be estimated over a 24 hour interval before and after dye administration. Creatinine clearance will be analyzed by measuring plasma and urinary creatinine levels (Bioassay Systems; DICT-500) and urine volume.
Renal Histology: Kidneys will be fixed in 10% neutral-buffered formalin and embedded in paraffin wax for sectioning. Three-micron sections will be stained with hematoxylin-eosin (H&E) and periodic acid-Schiff (PAS) and analyzed by light microscopy by a board certified pathologist. […]

[4] = Example 16: H2O2 scavenging, luminol-induced chemiluminescence; format: biochemical; details: H2O2 4.4 nmol
Experimental: The effect of peptide conjugates, aromatic-cationic peptides, or SPN10(s) (with or without aromatic-cationic peptides) on H2O2 will be measured by luminol-induced chemiluminescence. Luminol (25 μM) and horseradish peroxidase (0.7 IU) will be added to a solution of H2O2 (4.4 nmol) followed by peptide conjugates; aromatic-cationic peptides; or SPN10(s) alone or in combination with aromatic-cationic peptides. Chemiluminescence will be monitored with a Chronolog Model 560 aggregometer (Havertown, PA) for 20 minutes at 37° C.

## N=C(N)NCCC[C@H](NC(=O)[C@@H](N)Cc1c[nH]c2ccccc12)C(=O)N[C@@H](Cc1c[nH]c2ccccc12)C(=O)N[C@@H](CCCCN)C(N)=O [SPN10, H-L-Trp-L-Arg-L-Trp-L-Lys-NH2] (H-WRWK-NH2)
[1]
  lipid peroxidation (HNE-modified proteins): prevent lipid peroxidation
Isolated mitochondria
  tolerance of mitochondria to cumulative Ca^2+ challenges: dose-dependently increase the tolerance
Isolated mitochondria; 10 μM pre-treatment for 2 minutes prior to Ca^2+
  onset of MPT after Ca^2+: prevent the onset of MPT
Isolated mitochondria; 3NP 1 mM
  onset of MPT induced by 3NP: dose-dependently delay the onset of MPT
[2]
  apoptosis of islet cells (annexin V): reduce apoptosis
  islet cell viability (mitochondrial membrane potential): increase islet cell viability
Sprague-Dawley rats
  rate of wound contraction: slower rate of wound contraction
[3]; TUNEL
  number of apoptotic cells in contrast dye-exposed kidneys: reduce the number of apoptotic cells
[3]; contrast dye-exposed kidneys
  loss of renal brush border and vacuolization (PAS): attenuated
[3]; indomethacin, L-NAME, iothalamate, treatment before and after dye
  decline in renal function (GFR) after contrast dye: reduce the decline in renal function
[4]
  luminol response (H2O2 scavenging): dose-dependently inhibit the luminol response

Reference: patent US20240108740A1, “THERAPEUTIC COMPOSITIONS INCLUDING SPN10 AND USES THEREOF” (Stealth BioTherapeutics Inc., priority 2022, published 2024)
